# Results reported in ChEMBL document CHEMBL1629513, “Synthesis, characterization, antiamoebic activity and cytotoxicity of novel 2-(quinolin-8-yloxy) acetohydrazones and their cyclized products (1,2,3-thiadiazole and 1,2,3-selenadiazole derivatives)” (Eur J Med Chem, 2010).
# pIC50: −log10 of the molar value.
# Assays:
# Entamoeba histolytica = experiment: Antiamoebic activity against Entamoeba histolytica HM-1:IMSS after 72 hrs by microdilution assay; assay type: functional, organism-based
# MCF7 = experiment: Cytotoxicity against human MCF7 cells after 48 hrs by MTT assay; assay type: cell-based; conditions: MCF7, 48 h
# [1] = Cytotoxicity against human MCF7 cells assessed as cell viability up to 100 uM after 48 hrs by MTT assay; assay type: cell-based; conditions: read-out: Activity
# [2] = Cytotoxicity against human MCF7 cells assessed as cell viability at 1.56 to 50 uM after 48 hrs by MTT assay; assay type: cell-based; conditions: read-out: Activity
SMILES,pIC50 (Entamoeba histolytica),pIC50 (MCF7),viability at 48 h [1],"viability at 48 h, up to 50 µM [2]"
C/C(=N\NC(=O)COc1cccc2cccnc12)c1ccco1,7.30,< 4.00,100%,
c1ccc(-c2c[se]nn2)nc1,6.34,4.06,,
c1ccc(-c2csnn2)cc1,5.13,,,
Clc1ccc(-c2csnn2)cc1,6.41,< 4.00,,
c1coc(-c2c[se]nn2)c1,5.24,,,
Brc1ccc(-c2c[se]nn2)cc1,5.53,,,
c1ccc(-c2c[se]nn2)cc1,5.34,,,
Cc1ncc([N+](=O)[O-])n1CCO [METRONIDAZOLE],,< 4.00,100%,
c1csc(-c2c[se]nn2)c1,5.28,,,
C/C(=N\NC(=O)COc1cccc2cccnc12)c1ccc(Br)cc1,7.40,< 4.00,100%,
Clc1ccc(-c2c[se]nn2)cc1,6.24,4.24,57%,66%
C/C(=N\NC(=O)COc1cccc2cccnc12)c1ccccn1,7.30,< 4.00,100%,

# Further lines, with some results ahead:
pIC50 (Entamoeba histolytica),SMILES,pIC50 (MCF7),viability at 48 h [1],"viability at 48 h, up to 50 µM [2]"
5.26,c1ccc(-c2csnn2)nc1,,,
7.52,C/C(=N\NC(=O)COc1cccc2cccnc12)c1ccccc1,< 4.00,100%,
6.64,c1coc(-c2csnn2)c1,4.02,,
7.40,C/C(=N\NC(=O)COc1cccc2cccnc12)c1ccc(Cl)cc1,< 4.00,100%,
6.62,Brc1ccc(-c2csnn2)cc1,4.17,68%,
7.10,C/C(=N\NC(=O)COc1cccc2cccnc12)c1cccs1,< 4.00,88%,
5.65,c1csc(-c2csnn2)c1,4.17,,
